In patent publication US20060025419A1, “Imidazoquinoxaline compound for the treatment of melanoma” (priority 2004, published 2006):
Peptide text beside a SMILES is read from it. * marks the point of attachment. Cbz = O=C(OCc1ccccc1)*; CH2F = FC*

Experiments:
human melanoma grafts = assay: Tumor growth in tumor-bearing mice treated with temozolomide; assay type: in vivo; conditions: daily 60 mg/kg orally
SK-Mel-5 cells [1] = assay: Nuclear apoptosis (DNA fragmentation) by flow cytometry; assay type: cell-based, human; conditions: 50 μM, 48 h, p<0.05
Method: FIGS. 4A-4H. […] Paraffin-embedded tumor tissues were subjected to H&E staining (FIGS. 4C & D) and DeadEnd Fluorometric TUNEL-assay for detection of apoptosis (FIGS. 4E & F). The TUNEL-positive cells are visualized in green fluorescence in a red (Propidium Iodide) background by fluorescence microscopy. […] After 36 h incubation, cells were collected and fixed with 1% formaldehyde and 70% ice-cold ethanol. The apoptotic cells were examined using TUNEL-assay and analyzed by flow cytometry through measuring fluorescein-12-dUTP at 520 nm. The apoptotic rate is indicated in each box. Data shown are represented one of three independent experiments. […] Cells were fixed and stained with Propidium iodide. Cell fluorescence was measured by flow cytometry and the data were analyzed using DNA content histogram deconvolution software (Multicycle from Phoenix Flow Systems). The percentage of apoptotic cells with fragmented DNA (PI intensity sub-G0/G1) is indicated at each time point. The experiments were repeated twice, in duplicates for each point (total n=4).

SK-Mel-5 cells [2] = assay: Western blot / confocal analysis of apoptotic proteins in subcellular fractions; assay type: cell-based, human; conditions: 50 μM with 10 μM BMS-345541, Western blot and confocal microscopy
Method: Subcellular mitochondria and cytoplasm were prepared and subjected to Western blot analysis for Bcl-2 and Bax. […] After exposure, mitochondria were isolated and incubated with 80 μM 3,3′dihexyloxacarbocyanine iodide (DiOC6) at 37° C. for 15 min. Δψm was determined by FACS analysis using 484/530 nm filters within 10 min while gating the forward and sideward scatters on intact mitochondria (FIG. 5C). […] Subcellular extracts were prepared and subjected to Western blot analysis for cytochrome-C and AIF. […] The supernatant was assessed for cytochrome-c release. 200 μM Ca^2+ was used as a positive control.
The cellular caspase-3 activity in samples was detected as described in Materials and Methods. […] Cells were fixed and stained with propidium iodide staining as described in FIG. 4H. The percentage of cell death was measured with flow cytometry. […] Cytosol was extracted and subjected to Western blot analysis for AIF, cytochrome-c (cyto-C) and actin. Actin was used as a loading control protein. […] Ref-1 was used as a nuclear marker protein. All data shown here were from three independent experiments. […] SK-Mel-5 cells were exposed to 10 μM BMS and/or pan-caspase inhibitor (Z-VAD-fmk, 50 μM).
Proteins from cell extracts were separated by 12% SDS-PAGE and electrophoretically transferred to nitrocellulose membranes. Nonspecific binding was blocked with 5% milk in TBST buffer (4 mM Tris base, 100 mM NaCl, pH 7.5, 0.05% Tween), incubated with the indicated primary antibodies with a dilution of 1:1000 at room temperature for 2 h or 4° C. for overnight and then with horseradish peroxidase-conjugated secondary antibody for 1 h. Blots were visualized by enhanced chemiluminescence assay.
The Mitochondria Isolation Kit (Pierce, Rockford, Ill.) was used for isolation of mitochondria from cultured melanoma cells according to the manufacture's instruction for the Reagent-based method. Briefly, cells (2×10^7) were collected, washed with PBS buffer and resuspended in 0.8 ml of Reagent A on ice for 2 min. 10 μl of Reagent B was added and samples were kept on ice, with vortexing very minute for 5 min. After addition of 0.8 ml of Reagent C, the mixture was centrifuged at 700×g for 10 min to remove the cell debris and nuclei. The supernatant was then centrifuged at 3,000×g for 15 min. The pellet (mitochondria) was washed with Reagent C. The purity of mitochondria was determined by Western blotting with β-actin, where β-actin negative preparation were fully to be pure. The supernatant (cytosolic fraction) was further cleared by centrifugation at 12,000×g for 15 min.
Cells were incubated with the anti-AIF polyclonal antibody for 2 h. Cells were washed twice and incubated with the secondary antibody conjugated with FITC for 1 h.

caspase-3 = assay: Caspase-3 activity assay (Ac-DEVD-pNA) in cytosol extracts; assay type: cell-based, human; conditions: 50 μM pan-caspase inhibitor, 10 μM BMS-345541

Structure (SMILES) | tumor growth inhibition (human melanoma grafts) [%] | cells protected from nuclear apoptosis induced by 10 μM BMS-345541 (SK-Mel-5 cells [1]) [%] | influence on AIF translocation to nucleus and nuclear condensation (SK-Mel-5 cells [2]) | block of BMS-345541 induction of caspase-3 activity (caspase-3) [%]
Cn1nnc2c(C(N)=O)ncn2c1=O [temozolomide] | 81 | – | – | –
COC(=O)C[C@H](NC(=O)[C@H](C)NC(=O)[C@@H](NC(=O)OCc1ccccc1)C(C)C)C(=O)CF [Z-VAD-fmk, reference compound] (Cbz-Val-Ala-Asp(OMe)-CH2F) | – | 11 | failed to influence | 87.2
